Source: ChEMBL document CHEMBL1156063, “Design of new antifungal agents: synthesis and evaluation of 1-[(1H-indol-5-ylmethyl)amino]-2-phenyl-3-(1H-1,2,4-triazol-1-yl)propan-2-ols” (2009)
In brackets after ≈: the same amount, converted by molar mass. Activity calls are given as the source filed them. No cut-off for these calls is given here.

Columns and labels:
Assay type in all cases: functional
Candida albicans [1] = assay: Antifungal activity against Candida albicans CA98001
Aspergillus fumigatus = assay: Antifungal activity against Aspergillus fumigatus AF98003
Candida parapsilosis [2] = assay: Antifungal activity against fluconazole-resistant Candida parapsilosis Houdeau; conditions: Lodderomyces parapsilosis
Pichia kudriavzevii [3] = assay: Antifungal activity against fluconazole low-sensitive Candida krusei CK8
Candida albicans [4] = assay: Antifungal activity against fluconazole-resistant Candida albicans CA424
Pichia kudriavzevii [5] = assay: Antifungal activity against fluconazole-resistant Candida krusei CK506
Candida albicans [6] = assay: Antifungal activity against fluconazole-resistant Candida albicans CA284
Candida parapsilosis [7] = assay: Antifungal activity against fluconazole-resistant Candida parapsilosis Rolland; conditions: Lodderomyces parapsilosis
Nakaseomyces glabratus = assay: Antifungal activity against fluconazole-resistant Candida glabrata CG468

Compound	MIC (Candida albicans [1])	MIC (Aspergillus fumigatus)	further results
OC(CNCc1ccc2[nH]ccc2c1)(Cn1cncn1)c1ccc(F)cc1F (stereo unspecified)	0.034 µg/mL (≈ 0.0887 µM)	inactive	
OC(Cn1cncn1)(Cn1cncn1)c1ccc(F)cc1F [FLUCONAZOLE]	0.19 µg/mL (≈ 0.62 µM)		MIC (Candida parapsilosis [2]): > 64 µg/mL; MIC (Pichia kudriavzevii [3]): 19 µg/mL (≈ 62 µM); MIC (Candida albicans [4]): > 64 µg/mL; MIC (Pichia kudriavzevii [5]): > 64 µg/mL; MIC (Candida albicans [6]): > 64 µg/mL; MIC (Candida parapsilosis [7]): > 64 µg/mL; MIC (Nakaseomyces glabratus): > 64 µg/mL
CN(Cc1ccc2[nH]ccc2c1)CC(O)(Cn1cncn1)c1ccc(F)cc1F (stereo unspecified)	0.035 µg/mL (≈ 0.0881 µM)	inactive	
CC(C)(C)OC(=O)n1ccc2cc(CNCC(O)(Cn3cncn3)c3ccc(Cl)cc3Cl)ccc21 (stereo unspecified)	0.039 µg/mL (≈ 0.0755 µM)	inactive	
O=C(c1ccccc1)n1ccc2cc(CNCC(O)(Cn3cncn3)c3ccc(F)cc3F)ccc21 (stereo unspecified)	0.027 µg/mL (≈ 0.0554 µM)	inactive	
O=C(c1ccccc1)n1ccc2cc(CNCC(O)(Cn3cncn3)c3ccc(Cl)cc3Cl)ccc21 (stereo unspecified)	0.031 µg/mL (≈ 0.0596 µM)	inactive	
OC(CNCc1ccc2[nH]ccc2c1)(Cn1cncn1)c1ccc(Cl)cc1Cl (stereo unspecified)	0.031 µg/mL (≈ 0.0745 µM)	inactive	
CC(C)(C)OC(=O)n1ccc2cc(CNCC(O)(Cn3cncn3)c3ccc(F)cc3F)ccc21 (stereo unspecified)	0.003 µg/mL (≈ 0.0062 µM)	inactive	MIC (Candida parapsilosis [2]): 24 µg/mL (≈ 49.6 µM); MIC (Pichia kudriavzevii [3]): 3.8 µg/mL (≈ 7.86 µM); MIC (Candida albicans [4]): 33 µg/mL (≈ 68.2 µM); MIC (Pichia kudriavzevii [5]): 27 µg/mL (≈ 55.8 µM); MIC (Candida albicans [6]): 32 µg/mL (≈ 66.2 µM); MIC (Candida parapsilosis [7]): 19 µg/mL (≈ 39.3 µM); MIC (Nakaseomyces glabratus): 12 µg/mL (≈ 24.8 µM)
CN(Cc1ccc2[nH]cc(C(=O)C(F)(F)F)c2c1)CC(O)(Cn1cncn1)c1ccc(F)cc1F (stereo unspecified)	0.064 µg/mL (≈ 0.13 µM)	inactive	
CN(Cc1ccc2c(ccn2C(=O)OC(C)(C)C)c1)CC(O)(Cn1cncn1)c1ccc(F)cc1F (stereo unspecified)	0.06 µg/mL (≈ 0.121 µM)	inactive	
CCC(C)n1ncn(-c2ccc(N3CCN(c4ccc(OCC5COC(Cn6cncn6)(c6ccc(Cl)cc6Cl)O5)cc4)CC3)cc2)c1=O (stereo unspecified) [ITRACONAZOLE]		0.42 µg/mL (≈ 0.595 µM)	
CN(Cc1ccc2c(ccn2C(=O)c2ccccc2)c1)CC(O)(Cn1cncn1)c1ccc(F)cc1F (stereo unspecified)	0.032 µg/mL (≈ 0.0638 µM)	inactive	
